The values that follow come from patent US10294229B2, “Heteroaryl substituted aminopyridine compounds” (BRISTOL-MYERS SQUIBB COMPANY, priority 2015, dated 2019).

SMILES strings stand for the structures.

In assay [1] the target is IRAK4 (Homo sapiens (Human), UniProt Q9NWZ3). Kind of assay: IRAK4 Inhibition Assay. The class given is biochemical. Particulars: ATP 500 μM; IRAK4 0.6 nM. In a few lines: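 Readout: electrophoretic (LabChip) separation of fluorescent peptide substrate from phosphorylated product after EDTA quench. Reactions ran 60 min at room temperature with 0.6 nM IRAK4, 1.5 μM peptide and 500 μM ATP; inhibition referenced to no-enzyme (100%) and vehicle (0%) controls.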
Chain of IRAK4 (Q9NWZ3 whole entry, species assumed): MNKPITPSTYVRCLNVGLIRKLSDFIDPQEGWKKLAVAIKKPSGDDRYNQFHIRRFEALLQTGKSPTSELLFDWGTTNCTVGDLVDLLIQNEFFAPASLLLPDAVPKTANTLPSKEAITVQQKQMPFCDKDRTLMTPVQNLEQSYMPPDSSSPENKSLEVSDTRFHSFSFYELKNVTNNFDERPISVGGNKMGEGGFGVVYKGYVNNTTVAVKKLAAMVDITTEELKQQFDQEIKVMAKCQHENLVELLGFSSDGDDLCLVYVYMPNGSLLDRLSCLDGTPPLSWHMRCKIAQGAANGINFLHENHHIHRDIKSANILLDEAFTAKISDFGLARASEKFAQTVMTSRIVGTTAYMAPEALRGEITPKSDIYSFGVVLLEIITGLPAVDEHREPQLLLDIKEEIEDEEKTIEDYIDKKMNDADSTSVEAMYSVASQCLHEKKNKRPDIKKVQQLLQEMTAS

Assay [2] has as its system Human whole blood stimulated with a TLR2 agonist (lipoteichoic acid), IL-6 levels. Kind of assay: IRAK4 Whole Blood Assay. The class given is cell-based. As to conditions: lipoteichoic acid 10 μg/mL. The protocol:
Human whole blood containing the anti-coagulant ACD-A was plated in 384-well plate (25 μL/well) and incubated with compounds for 60 minutes at 37° C. in a 5% CO2 incubator. The blood was stimulated with a TLR2 agonist, 10 μg/mL final concentration of lipoteichoic acid (Invivogen, San Diego, Calif.) in 25 μL RPMI (Gibco) for 5 hours in a 5% CO2 incubator. At the end of the incubation, plates were centrifuged at 2300 rpm for 5 minutes. Supernatants were harvested and analyzed for IL-6 levels by Flow Cytometry beads assay (BD Biosciences, San Jose, Calif.).

`CC(C)Nc1cc(-n2ncc3cc(C#N)cnc32)ncc1-c1cn(CC(O)C(F)(F)F)nn1` (stereo not drawn) [Example 129, 1-(4-(isopropylamino)-5-(1-(3,3,3-trifluoro-2-hydroxypropyl)-1H-1,2,3-triazol-4-yl)pyridin-2-yl)-1H-pyrazolo[3,4-b]pyridine-5-carbonitrile]: the IC50 – broadly, the concentration that gives 50% inhibition – in assay [1] was 7 nM. Also, the EC50 – broadly, the midpoint of the concentration-response curve – in assay [2] (Homo sapiens) turned out to be 830 nM.

As to `CC(C)Nc1cc(-n2ncc3cc(C#N)cnc32)ncc1-c1cn(CCCc2ccccc2)nn1` [Example 130, 1-(4-(isopropylamino)-5-(1-(3-phenylpropyl)-1H-1,2,3-triazol-4-yl)pyridin-2-yl)-1H-pyrazolo[3,4-b]pyridine-5-carbonitrile], the IC50 in assay [1] worked out at 5 nM. In assay [2] (Homo sapiens), this molecule returned an EC50 of 10700 nM.

As to `CC(C)Nc1cc(-n2ncc3cc(C#N)cnc32)ncc1-c1cn(CC(O)CO)nn1` (stereo not drawn) [Example 131, 1-(5-(1-(2,3-dihydroxypropyl)-1H-1,2,3-triazol-4-yl)-4-(isopropylamino)pyridin-2-yl)-1H-pyrazolo[3,4-b]pyridine-5-carbonitrile], the IC50 in assay [1] was determined as 12 nM. The molecule further displayed an EC50 in assay [2] (Homo sapiens) of 1080 nM.

As to `COCC(O)Cn1cc(-c2cnc(-n3ncc4cc(C#N)cnc43)cc2NC(C)C)nn1` (stereo not drawn) [Example 133, 1-(5-(1-(2-hydroxy-3-methoxypropyl)-1H-1,2,3-triazol-4-yl)-4-(isopropylamino)pyridin-2-yl)-1H-pyrazolo[3,4-b]pyridine-5-carbonitrile], the IC50 in assay [1] turned out to be 10 nM. The molecule also registered an EC50 in assay [2] (Homo sapiens) of 980 nM.

In the case of `CC[C@H](O)Cn1cc(-c2cnc(-n3ncc4cc(C#N)cnc43)cc2NC(C)C)nn1` [Example 134, (S)-1-(5-(1-(2-hydroxybutyl)-1H-1,2,3-triazol-4-yl)-4-(isopropylamino)pyridin-2-yl)-1H-pyrazolo[3,4-b]pyridine-5-carbonitrile], the IC50 in assay [1] is 6 nM. Besides, the EC50 in assay [2] (Homo sapiens) is 550 nM.

Take `CC(C)Nc1cc(-n2ncc3cc(C#N)cnc32)ncc1-c1cn(CC(O)C(C)C)nn1` (stereo not drawn) [Example 135, 1-(5-(1-(2-hydroxy-3-methylbutyl)-1H-1,2,3-triazol-4-yl)-4-(isopropylamino)pyridin-2-yl)-1H-pyrazolo[3,4-b]pyridine-5-carbonitrile]: the IC50 in assay [1] is 4 nM. For the same molecule, in assay [2] (Homo sapiens), the midpoint of the response, the EC50, lay at 1190 nM.

Turning to `CCOCC(O)Cn1cc(-c2cnc(-n3ncc4cc(C#N)cnc43)cc2NC(C)C)nn1` (stereo not drawn) [Example 137, 1-(5-(1-(3-ethoxy-2-hydroxypropyl)-1H-1,2,3-triazol-4-yl)-4-(isopropylamino)pyridin-2-yl)-1H-pyrazolo[3,4-b]pyridine-5-carbonitrile], the IC50 in assay [1] is 8 nM. Moreover, in assay [2] (Homo sapiens), a half-maximal response (EC50) required 1690 nM.

With `CC(C)Nc1cc(-n2ncc3cc(C#N)cnc32)ncc1-c1cn(C2CN(C(=O)CC3CC3)C2)nn1` [Example 139, 1-(5-(1-(1-(2-cyclopropylacetyl)azetidin-3-yl)-1H-1,2,3-triazol-4-yl)-4-(isopropylamino)pyridin-2-yl)-1H-pyrazolo[3,4-b]pyridine-5-carbonitrile], the IC50 in assay [1] worked out at 4 nM. In assay [2] (Homo sapiens), the midpoint of the response, the EC50, lay at 1090 nM.

On to `CC(C)Nc1cc(-n2ncc3cc(C#N)cnc32)ncc1-c1cn(C2CN(C#N)C2)nn1` [Example 141, 1-(5-(1-(1-cyanoazetidin-3-yl)-1H-1,2,3-triazol-4-yl)-4-(isopropylamino)pyridin-2-yl)-1H-pyrazolo[3,4-b]pyridine-5-carbonitrile], for which, in assay [1], the IC50 turned out to be 8 nM. The molecule also gave an EC50 in assay [2] (Homo sapiens) of 960 nM.

As to `COC(=O)N1CC(n2cc(-c3cnc(-n4ncc5cc(C#N)cnc54)cc3NC(C)C)nn2)C1` [Example 142, methyl 3-(4-(6-(5-cyano-1H-pyrazolo[3,4-b]pyridin-1-yl)-4-(isopropylamino)pyridin-3-yl)-1H-1,2,3-triazol-1-yl)azetidine-1-carboxylate], the IC50 in assay [1] came to 5 nM. The molecule further gave an EC50 in assay [2] (Homo sapiens) of 560 nM.

Consider `CC(C)Nc1cc(-n2ncc3cc(C#N)cnc32)ncc1-c1cn(C2CN(C(=O)c3ccccc3)C2)nn1` [Example 143, 1-(5-(1-(1-benzoylazetidin-3-yl)-1H-1,2,3-triazol-4-yl)-4-(isopropylamino)pyridin-2-yl)-1H-pyrazolo[3,4-b]pyridine-5-carbonitrile], for which, in assay [1], the IC50 was determined as 8 nM. The molecule further came in with an EC50 in assay [2] (Homo sapiens) of 970 nM.

In the case of `CC(C)Nc1cc(-n2ncc3cc(C#N)cnc32)ncc1-c1cn(C2CN(C(=O)C(C)C)C2)nn1` [Example 144, 1-(5-(1-(1-isobutyrylazetidin-3-yl)-1H-1,2,3-triazol-4-yl)-4-(isopropylamino)pyridin-2-yl)-1H-pyrazolo[3,4-b]pyridine-5-carbonitrile], in assay [1], the IC50 came to 4 nM. The EC50 in assay [2] (Homo sapiens) came out at 490 nM.

As to `CC(C)Nc1cc(-n2ncc3cc(C#N)cnc32)ncc1-c1cn(C2CN(C(=O)C3CC3)C2)nn1` [Example 145, 1-(5-(1-(1-(cyclopropanecarbonyl)azetidin-3-yl)-1H-1,2,3-triazol-4-yl)-4-(isopropylamino)pyridin-2-yl)-1H-pyrazolo[3,4-b]pyridine-5-carbonitrile], the IC50 in assay [1] came out at 4 nM. Further, the response in assay [2] (Homo sapiens) was half-maximal at 740 nM (EC50).

For `CC(C)Nc1cc(-n2ncc3cc(C#N)cnc32)ncc1-c1cn(C2CN(C(=O)C(C)(C)C)C2)nn1` [Example 146, 1-(4-(isopropylamino)-5-(1-(1-pivaloylazetidin-3-yl)-1H-1,2,3-triazol-4-yl)pyridin-2-yl)-1H-pyrazolo[3,4-b]pyridine-5-carbonitrile], the half-inhibitory concentration (IC50) in assay [1] stood at 3 nM. Also, in assay [2] (Homo sapiens), the midpoint of the response, the EC50, lay at 1090 nM.

Take `CC(C)Nc1cc(-n2ncc3cc(C#N)cnc32)ncc1-c1cn(C2CN(c3ncccn3)C2)nn1` [Example 147, 1-(4-(isopropylamino)-5-(1-(1-(pyrimidin-2-yl)azetidin-3-yl)-1H-1,2,3-triazol-4-yl)pyridin-2-yl)-1H-pyrazolo[3,4-b]pyridine-5-carbonitrile]: in assay [1], the IC50 is 5 nM. In addition, in assay [2] (Homo sapiens), it took 1060 nM to reach a half-maximal effect (EC50).

Regarding `Cc1nnc(N2CC(n3cc(-c4cnc(-n5ncc6cc(C#N)cnc65)cc4NC(C)C)nn3)C2)o1` [Example 148, 1-(4-(isopropylamino)-5-(1-(1-(5-methyl-1,3,4-oxadiazol-2-yl)azetidin-3-yl)-1H-1,2,3-triazol-4-yl)pyridin-2-yl)-1H-pyrazolo[3,4-b]pyridine-5-carbonitrile], the IC50 in assay [1] is 5 nM. In assay [2] (Homo sapiens), this molecule came in with an EC50 of 1900 nM.

For the molecule `CCN1CC(n2cc(-c3cnc(-n4ncc5cc(C#N)cnc54)cc3NC(C)C)nn2)C1` [Example 149, 1-(5-(1-(1-ethylazetidin-3-yl)-1H-1,2,3-triazol-4-yl)-4-(isopropylamino)pyridin-2-yl)-1H-pyrazolo[3,4-b]pyridine-5-carbonitrile], the IC50 in assay [1] is 2 nM. Besides, the EC50 in assay [2] (Homo sapiens) is 730 nM.

For the molecule `CC(C)Nc1cc(-n2ncc3cc(C#N)cnc32)ncc1-c1cn(C2CN(C)C2)nn1` [Example 151, 1-(4-(isopropylamino)-5-(1-(1-methylazetidin-3-yl)-1H-1,2,3-triazol-4-yl)pyridin-2-yl)-1H-pyrazolo[3,4-b]pyridine-5-carbonitrile, 2TFA], the IC50 in assay [1] is 2 nM. In assay [2] (Homo sapiens), a half-maximal response (EC50) required 1610 nM.

For `CC(=O)N1CCC(n2cc(-c3cnc(-n4ncc5cc(C#N)cnc54)cc3NC(C)C)nn2)C1` (stereo not drawn) [Example 158, 1-(5-(1-(1-acetylpyrrolidin-3-yl)-1H-1,2,3-triazol-4-yl)-4-(isopropylamino)pyridin-2-yl)-1H-pyrazolo[3,4-b]pyridine-5-carbonitrile], in assay [1], the IC50 was found to be 2 nM. The EC50 in assay [2] was 520 nM.

With `CC(C)Nc1cc(-n2ncc3cc(C#N)cnc32)ncc1-c1cn(C)nn1` [Example 164, 1-(4-(isopropylamino)-5-(1-methyl-1H-1,2,3-triazol-4-yl)pyridin-2-yl)-1H-pyrazolo[3,4-b]pyridine-5-carbonitrile], the IC50 in assay [1] was determined as 8 nM. For the same molecule, in assay [2] (Homo sapiens), the response was half-maximal at 600 nM (EC50).

In the case of `CC(C)Nc1cc(-n2ncc3cc(C#N)cnc32)ncc1-c1cn(C[C@H](N)Cc2ccccc2)nn1` [Example 169, (R)-1-(5-(1-(2-amino-3-phenylpropyl)-1H-1,2,3-triazol-4-yl)-4-(isopropylamino)pyridin-2-yl)-1H-pyrazolo[3,4-b]pyridine-5-carbonitrile], the IC50 in assay [1] worked out at 17 nM. In addition, in assay [2] (Homo sapiens), the response was half-maximal at 2140 nM (EC50).

`CC(C)Nc1cc(-n2ncc3cc(C#N)cnc32)ncc1-c1cn(CCCN)nn1` [Example 171, 1-(5-(1-(3-aminopropyl)-1H-1,2,3-triazol-4-yl)-4-(isopropylamino)pyridin-2-yl)-1H-pyrazolo[3,4-b]pyridine-5-carbonitrile]: the IC50 in assay [1] was 6 nM. In assay [2] (Homo sapiens), this molecule returned a 50% effective concentration (EC50) of 1160 nM.

For `CC(C)Nc1cc(-n2ncc3cc(C#N)cnc32)ncc1-c1cn([C@H]2CCN(C(=O)OC(C)(C)C)C[C@H]2O)nn1` [Example 176, (3R,4S)-tert-butyl 4-(4-(6-(5-cyano-1H-pyrazolo[3,4-b]pyridin-1-yl)-4-(isopropylamino)pyridin-3-yl)-1H-1,2,3-triazol-1-yl)-3-hydroxypiperidine-1-carboxylate], in assay [1], the IC50 was determined as 13 nM. Besides, in assay [2] (Homo sapiens), the EC50 stood at 2100 nM.

With `CC(C)Nc1cc(-n2ncc3cc(C#N)cnc32)ncc1-c1cn([C@H]2CCN(S(C)(=O)=O)C[C@H]2OS(C)(=O)=O)nn1` [Example 182, (3R,4S)-4-(4-(6-(5-cyano-1H-pyrazolo[3,4-b]pyridin-1-yl)-4-(isopropylamino)pyridin-3-yl)-1H-1,2,3-triazol-1-yl)-1-(methylsulfonyl)piperidin-3-yl methanesulfonate], the IC50 in assay [1] was 5 nM. Further, in assay [2] (Homo sapiens), it took 750 nM to reach a half-maximal effect (EC50).
